Where two headings read alike, the source gives them in different places.
Key:
[1] = tested on: NCI-H358 human non-small cell lung cancer cells with KRAS G12C mutation; assay: Cell experiment: anti-proliferative activity, CellTiter-Glo, NCI-H358; assay type: cell-based; conditions: Homo sapiens, NCI-H358, 120 h, 5 days culture
Procedure: (§1) This experiment is intended to verify that the compounds of the present invention have an inhibitory effect on the proliferation of NCI-H358 human non-small cell lung cancer cells with KRAS G12C mutation, MIA PaCa2 human pancreatic cancer cells with KRAS G12C mutation and wild-type A375 human malignant melanoma cells.
(§2) 40 μl of phosphate buffer was added to the peripheral wells of three 384-well microplates respectively, and 40 μl of cell suspension to be tested was added to the other wells of each plate respectively (plate 1: NCI-H358 cell suspension containing 500 NCI-H358 cells; plate 2: MIAPaCa2 cell suspension containing 300 MIAPaCa2 cells; plate 3: A375 cell suspension containing 300 A375 cells). The three cell plates were then placed in a carbon dioxide incubator and incubated overnight. Echo was used to perform a 3-fold gradient dilution of the compounds to be tested, and each compound was diluted with 10 concentration gradients (diluted from 50 μM to 0.003 μM), 100 nl of which was respectively added to the corresponding wells of the cell plates; after dosing, 40 μL of phosphate buffer was added to each well of rows A and P and columns 1 and 24, and then the cell plates were put back to the carbon dioxide incubator for culturing for 5 days. 20 μl of Promega CellTiter-Glo reagent per well was added to the cell plates, which was shaken at room temperature for 10 minutes in the dark to stabilize the luminescence signal. A PerkinElmer Envision multi-label analyzer was used for reading.
(§3) Data analysis: IC50 results were analyzed by GraphPad Prism 5.0 software […].

[2] = Rat pharmacokinetic evaluation experiment; assay type: in vivo; conditions: plasma, male SD rats; for AUC: read-out: AUC (exposure)
Text: To determine the drug concentrations in plasma at different times after intravenous and intragastric administration of the test compounds to the rats by using the LC/MS/MS method and using male SD rats as the test animals; To study the pharmacokinetic behaviors of the test compounds in rats and to evaluate the pharmacokinetic characteristics thereof.
Experiment scheme: 10 healthy adult male SD rats were used as experimental animals and divided into 4 groups according to the principle of similar body weight, with 2 in each group of the group IV (two groups) and 3 in each group of the group PO (two groups). The animals were purchased from Beijing Vital River Laboratory Animal Technology Co., Ltd.
Group IV: an appropriate amount of samples were weighed; an appropriate amount of DMSO, PEG400 and water were added successively thereto according to the volume ratio of 10:60:30; and stirring was performed under sonication to reach a clear state of 1.5 mg/mL.
Group PO: an appropriate amount of samples were weighed; an appropriate amount of DMSO, PEG400 and water were added successively thereto according to the volume ratio of 10:60:30; and stirring was performed under sonication to reach a clear state of 1.0 mg/mL.
After fasting overnight, each rat in the group IV was administered intravenously with a volume of 2 mL/kg and a dose of 3 mg/kg; each rat in the group PO was administered intragastrically with a volume of 10 mL/kg and a dose of 10 mg/kg.
After each of the male SD rats in the group IV was administrated with the test compounds, 200 ul of blood samples were collected at 0.0833, 0.25, 0.5, 1, 2, 4, 6, 8 and 24 hours, and were placed in a commercial anticoagulation tube pre-loaded with EDTA-K2. After each rat in the group PO was administrated with the test compounds, 200 ul of blood samples were collected at 0.25, 0.5, 1, 2, 4, 6, 8 and 24 hours respectively, and were placed in a commercial anticoagulation tube pre-loaded with EDTA-K2. The test tube was centrifuged for 15 minutes to separate the plasma and stored at −60° C. 2 hours after administration, the animals can be fed. The content of the test compounds in plasma was determined by the LC/MS/MS method after intravenous and intragastric administration to the rats. The linear range of the method was from 2.00 to 6000 nM; plasma samples were analyzed after treatment of precipitating proteins by acetonitrile.
Note: Cl: clearance rate; Vd: volume of distribution; AUC: exposure; T1/2: half-life; Cmax: maximum compound concentration after oral administration; Tmax: time to reach Cmax; F: bioavailability.

[3] = tested on: MIA PaCa2 human pancreatic cancer cells with KRAS G12C mutation; assay: Cell experiment: anti-proliferative activity, CellTiter-Glo, MIA PaCa2; assay type: cell-based; conditions: Homo sapiens, MIA PaCa-2, 120 h, 5 days culture
Procedure: as §1, §2, §3

[4] = tested on: human pancreatic cancer x-MIA-PaCa2 cell; assay: In vivo drug efficacy test (3): subcutaneous xenograft tumor model; design: species or system NU/NU mice; conditions: 50 mg/kg
Procedure: To evaluate the in vivo efficacy of the test compounds in a subcutaneous xenograft tumor model of human pancreatic cancer x-MIA-PaCa2 cell.
NU/NU mice, female, 6-8 weeks old, weighing 17-20 grams. A total of 100 were required (additional 30% of animals were inoculated). They were provided by Beijing Vital River Science and Technology Co., Ltd. Each mouse was subcutaneously inoculated with 0.2 mL (10×10^6) of x-MIA-PaCa2 cells (plus matrigel, with the volume ratio being 1:1) on the right back. When the average tumor volume reached about 150 mm^3, grouping and administration were performed, and the administration dose was shown in Table 7. The diameter of the tumor was measured with vernier calipers twice a week. The formula for calculating the tumor volume is: V=0.5a×b^2, wherein a and b represent the long and short diameters of the tumor, respectively. The tumor suppressive effect of the compounds was evaluated by TGI (%). TGI (%) reflects the tumor growth inhibition rate. Calculation of TGI (%): TGI (%)=[(1−(average tumor volume at the end of administration in a treatment group−average tumor volume at the beginning of administration in the treatment group))/(average tumor volume at the end of treatment in the solvent control group−average tumor volume at the beginning of treatment in the solvent control group)]×100%.

IC50 [1]: 50 nM
AUC ([2]; IV 3 mg/kg): 4.62 µM·h
clearance ([2]; IV 3 mg/kg, read-out: Cl (clearance rate)): 20.6 mL/min/kg
half-life ([2]; IV 3 mg/kg, read-out: T1/2 (half-life) (converted)): 0.94 h
Vd ([2]; IV 3 mg/kg, read-out: Vd (volume of distribution)): 2.15 L/kg
Cmax ([2]; PO 10 mg/kg): 2110 nM
Tmax ([2]; PO 10 mg/kg): 1.67 h
AUC ([2]; PO 10 mg/kg): 7.74 µM·h
bioavailability ([2]; PO 10 mg/kg, read-out: F (bioavailability)): 52%
IC50 [3]: 70 nM
SMILES: C=CC(=O)N1CCN(c2ncnc3c(=O)n(-c4c(N)c(Cl)cc(Cl)c4F)c(C(F)(F)F)cc23)CC1 [Example 49]
Tumor volume (day 14) [4]: 204 mm^3
TGI ([4]; day 14): 96.77%

Reference: patent publication US11453667B2, “Pyridone-pyrimidine derivative acting as KRASG12C mutein inhibitor” (MEDSHINE DISCOVERY INC., priority 2018, dated 2022)
